Measured values as given in PMC5438648, “Identifying the structure-activity relationship of leelamine necessary for inhibiting intracellular cholesterol transport” (Oncotarget, 2017).
Where two headings read alike, the source gives them in different places.

Tests used:
1205 Lu melanoma cells = test: MTS cell viability assay, 1205 Lu melanoma cells; format: cell-based, human; settings: 72 hours treatment, read-out: Melanoma cell killing efficacy (IC50 values) 1205 Lu (Melanoma cells)
Protocol: (§1) Dr. Craig Myers, Penn State College of Medicine, Hershey, PA provided normal human fibroblast cell line FF2441. Mutant V600E-BRAF human melanoma cell line 1205 Lu was provided by Dr. Herlyn; Wistar Institute, Philadelphia, PA and UACC 903 was provided by Dr. Mark Nelson; University of Arizona, Tucson, AZ. Cell lines were maintained in a 37°C humidified 5% CO2 atmosphere incubator and periodically monitored for phenotypic, genotypic characteristics, and tumorigenic potential to validate and confirm cell line identity.
(§2) In brief, 5 × 10^3 cells per well in 100 μL of media were seeded and grown in a 96-well plate for 48 to 72 hours and treated with either DMSO vehicle control or 0.62 to 100 μmol/L of compounds for 72 hours. IC50 values for each compound in μmol/L for respective cell lines were measured from three independent experiments using GraphPad Prism version 4.01 (GraphPad Software, La Jolla, CA). In addition, recovery and viability assessment was also measured with these compounds co-treated simultaneously with 10 nmol/L of bafilomycin A1 (BafA1) or 1 mMol/L β-cyclodextrin and the viability was measured using the MTS assay after 24 hours.

UACC 903 melanoma cells = test: MTS cell viability assay, UACC 903 melanoma cells; format: cell-based, human; settings: 72 hours treatment, read-out: Melanoma cell killing efficacy (IC50 values) UACC 903 (Melanoma cells)
Protocol: as §1, §2

[1] = system: normal human fibroblast cell line FF2441; test: MTS cell viability assay, normal fibroblasts; format: cell-based; settings: 72 hours treatment, read-out: Melanoma cell killing efficacy (IC50 values) FF2441 (Normal Cells)
Protocol: as §1, §2

melanoma cells = test: Autophagic flux: Western blot of p62 and LC3B; format: cell-based, human; settings: Western blotting, 24 hours
Text: (§3) Cell lysates were harvested and processed as described in refs [14, 29, 31, 34]. […] Protein lysates were collected for Western blotting analysis. Blots were probed with antibodies according to each supplier's recommendations: antibodies to IGF-1R, total AKT, phosphor AKT (Ser473), total PRAS40, phospho-PRAS40 (Thr246), total ERK1/2, phospho-ERK1/2 (Thr202/Tyr 204), total CDK2, phospho-CDK2 (Thr160), p62, LC3B, total STAT, phospho-STAT3 (Tyr705), caspase 3 and cleaved PARP from Cell Signaling Technology (Danvers, MA); cyclin D1, α-enolase and secondary antibodies conjugated with horseradish peroxidase from Santa Cruz Biotechnology (Santa Cruz, CA). Immunoblots were developed using the enhanced chemiluminescence (ECL) detection system (Thermo Fisher Scientific, Rockford, IL).

[2] = system: UACC 903 melanoma cell line; test: Western blot of signaling pathways (PI3K/AKT, STAT3, MAPK; pERK1/2); format: cell-based, human; settings: active 3-5 μmol/L, inactive 30-50 μmol/L, 24 hours
Text: as §3

UACC 903 cells = test: Endocytosis: Alexa Fluor 488 transferrin uptake; format: cell-based, human; settings: UACC 903, 2 hours treatment
Protocol: The endocytotic capacity of the cells was measured as described in Kuzu et al. 2014 [14]. Briefly, UACC 903 cells were seeded into chamber slides and treated with the particular agents for 2 hours. Next, Alexa Flor 488 tagged transferrin protein was added at a final concentration of 5 μg/mL and incubated for 30 minutes. Cells were then fixed on the slide with 4% paraformaldehyde and analyzed by fluorescence microscopy as described previously. Measurement of compounds effects on lysosomotropism was assessed through the appearance of cellular vacuolization of UACC 903 cells growing at 70 to 80% confluency on 100 mm culture dishes compared to controls. For some experimental conditions cells were co-treated with 10 nmol/L of BafA1 for 3 hours. Light microscopic images were used to assess cellular vacuolization.

[3] = Dose escalation for oral administration of leelamine; format: in vivo; settings: 80 mg/kg body weight (QOD) over 14 days, Swiss Webster mice
Protocol: To determine the effective oral dosage of leelamine, a dose escalation study was conducted in 4–6 week old Swiss Webster mice. […] Animals were weighed daily to ascertain potential toxic effects leading to changes in body weight. At the end of treatment, blood was collected from each sacrificed animal in a serum separator tube with lithium heparin (BD Microtainer) following cardiac puncture and levels of serum biomarkers of major organ toxicity were measured. In addition, vital organs including liver, spleen, kidney, intestine, lung and heart from control and experimental animals were collected on day 14, formalin fixed, paraffin-embedded, H&E stained and analyzed microscopically for changes in cellular morphology or tissue architecture.

[4] = Pharmacokinetics of leelamine in the serum of mice; format: in vivo; settings: 80 mg/kg oral, Swiss Webster mice
Protocol: Leelamine was extracted from serum as reported previously. Swiss Webster mice were treated orally with 80 mg/kg body weight of leelamine, animals were euthanized and blood drawn by cardiac puncture at various time periods over 36 hours. Samples were kept at room temperature for 30 minutes followed by serum separation by centrifugation for 5 minutes at 5,000 rpm. Next, 20 μL of the collected serum was added to 80 μL of acetonitrile along with 5 μL of propranolol (RS)-1-(1-methylethylamino)-3-(1-naphthyloxy)propan-2-ol), which served as an internal standard (transition of m/z 259.9 to 116.0). Solution was vortexed for 30 seconds and then centrifuged at 10,000 rpm for 10 minutes. Supernatant was transferred to the auto sampler vials and subject to liquid chromatography-mass spectrometry using LC-MS/MS 2010 EV system (Shimadzu, Tokyo, Japan).

[5] = Body weight and sub-chronic toxicity assessment (blood biomarkers) in tumor-bearing mice; format: in vivo; settings: 80 mg/kg oral daily, 24 days of treatment
Protocol: 1 × 10^6 UACC 903 cells in 0.2 mL of DMEM supplemented with 10% FBS were subcutaneously injected above both left and right rib cages of 4–6 week old female athymic nu/nu mice. Six to eight days later, mice were randomly sorted into vehicle control 10% PEG (Poly ethylene glycol) and experimental compound 4a or leelamine groups, followed by daily oral administration of 80 mg/kg body weight. Volume of developing tumors in mm^3 was measured on alternate days using calipers along with assessment of body weights.
At the end of tumorigenicity assessment, blood was collected from each euthanized animal in a serum separator tube with lithium heparin (BD Microtainer), following cardiac puncture and analyzed for levels of ALT (Alanine aminotransferase), AST (Aspartate aminotransferase), ALKP (Alkaline phosphatase), ALB (Albumin), GLB (Globulin), TPR (Total Protein), TBIL (Total bilirubin), BUN (Blood urea nitrogen), GLU (Glucose), CK (Creatine kinase), CAL (Calcium).

Row | Compound | IC50 (1205 Lu melanoma cells; Homo sapiens, 1205Lu, 72 h) [µM] | IC50 (UACC 903 melanoma cells; Homo sapiens, UACC-903, 72 h) [µM] | IC50 [1] [µM] | other results
1 | CC(C)C1=CC2=CCC3[C@](C)(CCC[C@@]3(C)C(N)=O)C2CC1 (stereo partly drawn) [3a, (1R, 4aR)-7-isopropyl-1,4a-dimethyl-1,2,3,4,4a,4b,5,6,10,10a-decahydrophenanthrene-1-carboxamide] | 81 ± 2.1 | 70.1 ± 1.8 | > 100 | 
2 | CNC(=O)[C@]1(C)CCC[C@]2(C)C3CCC(C(C)C)=CC3=CCC21 (stereo partly drawn) [3b, (1R, 4aR)-N, 1,4a-trimethyl-7-(propan-2-yl)-1,2,3,4,4a, 4b, 5,6, 10, 10a-decahydrophenanthrene-1-carboxamide] | > 100 | > 100 | > 100 | 
3 | CCN(CC)C(=O)[C@]1(C)CCC[C@]2(C)C3CCC(C(C)C)=CC3=CCC21 (stereo partly drawn) [3c, (1R, 4aR)-N, N-diethyl-1,4a-dimethyl-7-(propan-2-yl)-1,2,3,4,4a, 4b, 5,6, 10, 10a-decahydrophenanthrene-1-carboxamide] | > 100 | > 100 | > 100 | 
4 | CNC[C@]1(C)CCC[C@]2(C)C3CCC(C(C)C)=CC3=CCC12 (stereo partly drawn) [4b, {[(1R, 4aR)-1,4a-dimethyl-7-(propan-2-yl)-1,2,3,4,4a, 4b, 5,6,10,10a-decahydrophenanthren-1-yl]methyl}(methyl) amine] | 2.3 | 2.3 | 9.33 ± 1.2 | 
5 | CCN(CC)C[C@]1(C)CCC[C@]2(C)C3CCC(C(C)C)=CC3=CCC12 (stereo partly drawn) [4c, N-ethyl-N-(((1R, 4aR)-7-isopropyl-1,4a-dimethyl-1,2,3,4,4a, 4b,5,6,10,10a-decahydrophenanthren-1-yl)methyl) ethanamine] | 24.3 ± 2.5 | 24.4 ± 1.4 | > 100 | 
6 | CC(C)c1ccc2c(c1)CCC1[C@](C)(CNC(=O)C(F)(F)F)CCC[C@]21C (stereo partly drawn) [5a, N-{[(1R, 4aS)-1,4a-dimethyl-7-(propan-2-yl)-1,2,3,4,4a, 9, 10, 10a-octahydrophenanthren-1-yl]methyl}-2,2,2-trifluoroacetamide] | 2 | 1.2 | 5.17 ± 0.1 | autophagic flux (p62 and LC3B proteins) (melanoma cells): dose dependently induced accumulation of p62 and LC3B proteins; effect on PI3K/AKT, STAT3 and MAPK signaling pathways [2]: inhibited
7 | CC(C)c1ccc2c(c1)CCC1[C@](C)(CNC(=O)C(Br)(Br)Br)CCC[C@]21C (stereo partly drawn) [5b, N-{[(1R, 4aS)-1,4a-dimethyl-7-(propan-2-yl)-1,2,3,4,4a, 9, 10, 10a-octahydrophenanthren-1-yl]methyl}-2,2,2-tribromoacetamide] | 1.8 | 1 | 4.1 ± 0.2 | 
8 | CC(=O)NC[C@]1(C)CCC[C@]2(C)c3ccc(C(C)C)cc3CCC12 (stereo partly drawn) [5c, N-{[(1R, 4aS)-1,4a-dimethyl-7-(propan-2-yl)-1,2,3,4,4a, 9, 10, 10a-octahydrophenanthren-1-yl]methyl} acetamide] | > 100 | 89.4 ± 3.3 | > 100 | effect on PI3K/AKT, STAT3 and MAPK signaling pathways [2]: did not affect these pathways
9 | CC(C)c1ccc2c(c1)CCC1[C@](C)(CNC(=O)c3ccccc3)CCC[C@]21C (stereo partly drawn) [5d, N-(((1R, 4aS)-7-isopropyl-1,4a-dimethyl-1,2,3,4,4a, 9, 10, 10a-octahydrophenanthren-1-yl)methyl) benzamide] | > 100 | > 100 | > 100 | 
10 | CC(C)c1ccc2c(c1)CCC1[C@](C)(CNCc3ccccc3)CCC[C@]21C (stereo partly drawn) [5e, N-benzyl-1-((1R, 4aS)-7-isopropyl-1,4a-dimethyl-1,2,3,4,4a, 9, 10, 10a-octahydrophenanthren-1-yl) methanamine] | 7 | 6 | 3.13 ± 0.4 | IC50 (1205 Lu melanoma cells): 7.05 ± 0.7 µM
11 | CC(C)c1ccc2c(c1)CCC1[C@](C)(CNC(c3ccccc3)(c3ccccc3)c3ccccc3)CCC[C@]21C (stereo partly drawn) [5f, {[(1R, 4aS)-1,4a-dimetyl-7-(propan-2-yl)-1,2,3,4,4a, 9, 10, 10a-octahydrophenanthren-1-yl]methyl} (triphenylmethyl) amine] | > 100 | > 100 | > 100 | 
12 | CC(C)C1=CC2=CC[C@@H]3[C@](C)(CCC[C@@]3(C)C(=O)O)[C@H]2CC1 [Abietic acid, reference compound] | > 100 | > 100 | > 100 | cellular endocytosis (Alexa Fluor conjugated transferrin uptake) (UACC 903 cells): did not occur; effect on PI3K/AKT, STAT3 and MAPK signaling pathways [2]: did not affect these pathways
13 | CC(C)c1ccc2c(c1)CCC1C(C)(CN)CCCC21C (centres unmarked) [Leelamine] | 1.93 ± 0.2 | 1.35 ± 0.1 | 8.91 ± 0.6 | autophagic flux (p62 and LC3B proteins) (melanoma cells): dose dependently induced accumulation of p62 and LC3B proteins; weight loss on repeated oral dosing [3]: did not cause any weight loss; time present in the serum ([4]; followed over 36 hours): ≤ 24 h; Tmax ([4]; mouse, serum, LC-MS/MS, read-out: time of maximum concentration in serum): 6 h; effect on PI3K/AKT, STAT3 and MAPK signaling pathways [2]: inhibited; body weights of mice [5]: No significant differences
14 | [(1R, 4aR)-1,4a-dimethyl-7-(propan-2-yl)-1, 2, 3, 4, 4a, 4b, 5, 6, 7,10a-decahydrophenanthren-1-yl] methanol [2b] |  |  |  | IC50 (1205 Lu melanoma cells): 60.3 ± 1.6 µM; IC50 (UACC 903 melanoma cells): 52.6 ± 1.4 µM
